“Also recorded” adds a separate entry of the source.
Experiments:
Arabidopsis thaliana [1] = assay: Gene expression profiling (22,000 gene array) of sprayed Arabidopsis (MOA1); format: in vivo; conditions: for No. of Lethal Genes Altered / gene expression perturbations compared to the other treatments: 1 hr
[2] = system: Arabidopsis thaliana plants; assay: Phenotypic analysis of herbicide-treated Arabidopsis plants (SOA1); format: in vivo; conditions: for Symptom Class: three-week-old Arabidopsis plants treated with herbicide, phenotypes of FIG. 12; for leafCurling (Dev.) / leafTwisting (Dev.) / leafWidth (Dev.) / matureLeafAnthocyanins (Dev.) / matureLeafChlorosis (Dev.) / matureLeafNecrosis (Dev.) / newLeafAnthocyanins (Dev.) / newLeafChlorosis (Dev.) / newLeafNecrosis (Dev.) / pointedLeaves (Dev.) / tMic (Dev.): SOA1, numeric value standardized to mock treated
[3] = system: Saccharomyces cerevisiae wild type strain BY4743; assay: Combined gene expression and metabolite data mapped to KEGG reactions and pathways (AF1); format: cell-based; conditions: yeast
Description: In AF1, two different technologies were utilized: gene expression analysis (for examination of mRNA expression) and metabolite analysis. […] As noted previously, existing metabolic databases may be helpful in practicing the methods and systems of the present invention, but many databases include limitations that make their use in data analysis and pathway mapping less than straightforward. […] This caveat to KEGG makes it difficult to pinpoint the correct pathway when attempting to link a gene to a specific pathway. […] The pathway score indicates how meaningful the mapping is, or how likely it is to be correctly indicative of the pathway involved in the perturbation under examination. The method provides a pathway score based on perturbation levels of genes. and/or compounds and the information content of each gene and/or compound in the pathway, i.e., a pathway score indicates the extent to which other pathways are mapped to a gene/compound. For example, imagine that two genes are perturbed in a particular experiment. One gene maps to only one pathway, giving a high degree of probability that the perturbed pathway is the one identified in the mapping. The second gene maps to three pathways. In the later example, there is only one-third the probability that the pathway identified in the mapping is the one perturbed. The present invention provides a method for calculating the pathway scores, so that more weight is given to a score of a gene or compound that maps to only one pathway than to a score of a gene or compound that maps to multiple pathways. […] Where n=the total number of genes in the pathway; ipath—count=the number of pathways containing a gene; and j=the number of genes in the pathway that are perturbed. Another factor to be considered when weighting a pathway score is the degree of perturbation. Degree of perturbation can be calculated, for example, based on a number of standard deviations from a norm, and included in an equation such as the one shown above, so that not only the number of pathways is taken into account, but also accounts for the amount of gene transcript or compound present as compared to a control. Compounds were also linked to pathways using the KEGG database. KEGG links 676 compounds measured in AF1 to a total of 92 pathways. Of the 676 compounds under consideration, 77 were detected in the AF1 samples. […] The multiple mapping feature of KEGG makes it difficult to pinpoint the correct pathway when trying to link a compound to a specific pathway. […] A pathway score calculation is applied to the compounds to account for both information content (number of pathways a compound maps to) and perturbation level. […]

Arabidopsis thaliana [4] = assay: Biochemical (metabolite) profiling by LC-MS and GC-MS of sprayed Arabidopsis (MOA1); format: in vivo
Magnaporthe grisea = format: cell-based
Arabidopsis plants = conditions: nitrate addition to N-starved Arabidopsis plants; cited from earlier work
[5] = concentrations insufficient to inhibit growth

Structure (SMILES)	No. of Lethal Genes Altered (Arabidopsis thaliana [1])	Symptom Class [2]	leafCurling (Dev.) [2]	leafTwisting (Dev.) [2]	leafWidth (Dev.) [2]	matureLeafAnthocyanins (Dev.) [2]	matureLeafChlorosis (Dev.) [2]	matureLeafNecrosis (Dev.) [2]	newLeafAnthocyanins (Dev.) [2]	newLeafChlorosis (Dev.) [2]	newLeafNecrosis (Dev.) [2]	pointedLeaves (Dev.) [2]	tMic (Dev.) [2]	further results
O=C(O)c1ccccc1C(=O)Nc1cccc2ccccc12 [Naptalam]	3													gene expression perturbations compared to the other treatments (Arabidopsis thaliana [1]): fewest gene expression perturbations; Regulated Genes Following Herbicide Treatment: Down (Arabidopsis thaliana [1]; in vivo): 47; Regulated Genes Following Herbicide Treatment: Up (Arabidopsis thaliana [1]; in vivo): 50
C[n+]1ccc(-c2cc[n+](C)cc2)cc1 [Paraquat]		7												
c1cc[n+]2c(c1)-c1cccc[n+]1CC2 [Diquat]		7	2	0	−2	0	1	4	0	1	4	1	2	
OC(Cn1cncn1)(Cn1cncn1)c1ccc(F)cc1F [Fluconazole]														# Reactions (Number Of Pathways Having at Least One Enzyme and One Compound Perturbed) [3]: 15
CNc1cnn(-c2cccc(C(F)(F)F)c2)c(=O)c1Cl [Norfluazon, Norflurazon]														stress-related metabolites observed (Arabidopsis thaliana [4]; MOA1, 20 min and 1 hr): Only a few, if any
CC(C)C1(C)N=C(c2ncccc2C(=O)O)NC1=O (stereo not shown) [Imazapyr]														stress-related metabolites observed (Arabidopsis thaliana [4]; MOA1, 20 min and 1 hr): Only a few, if any
CC(=O)N1CCN(c2ccc(OCC3COC(Cn4ccnc4)(c4ccc(Cl)cc4Cl)O3)cc2)CC1 (stereo not shown) [Ketoconazole]														# Reactions (Number Of Pathways Having at Least One Enzyme and One Compound Perturbed) [3]: 24
CP(=O)(O)CCC(N)C(=O)O (stereo not shown) [Glufosinate]	10	3	2	1	−2	0	3	0	0	3	0	1	1	Regulated Genes Following Herbicide Treatment: Down (Arabidopsis thaliana [1]; in vivo): 54; nitrogen sources M. grisea is able to utilize in the presence of the compound (Magnaporthe grisea): only able to utilize glutamine and glutamate; stress-related metabolites observed (Arabidopsis thaliana [4]; in vivo): Only a few, if any
COc1nc(C)nc(NC(=O)NS(=O)(=O)c2ccccc2Cl)n1 [Chlorsulfuron]	8													
COC(=O)NS(=O)(=O)c1ccc(N)cc1 [Asulam]	5													gene expression perturbations compared to the other treatments (Arabidopsis thaliana [1]): fewest gene expression perturbations
O=C(O)COc1ccc(Cl)cc1Cl [2,4-D]		5	1	2	−1	1	2	0	0	1	0	0	2	
CN(C)C(=O)Nc1ccc(Cl)c(Cl)c1 [Diuron]		7	1	0	−2	0	2	4	0	2	4	1	1	
O=[N+]([O-])O [Nitrate]														Nitrate Regulation of Glutamate synthetase gene (Arabidopsis plants): ↑; Nitrate Regulation of Glutamine synthetase (2) genes (Arabidopsis plants): ↑; Nitrate Regulation of MADs Box (2) genes (Arabidopsis plants): ↓; Nitrate Regulation of MYB transcription factor gene (Arabidopsis plants): ↑; Nitrate Regulation of Malate Dehydrogenase gene (Arabidopsis plants): ↑; Nitrate Regulation of Nitrate transporter gene (Arabidopsis plants): ↑; Nitrate Regulation of Phosphate transporter gene (Arabidopsis plants): ↑; Nitrate Regulation of Transaldolase gene (Arabidopsis plants): ↑; Nitrate Regulation of Transketolase gene (Arabidopsis plants): ↑
O=C(O)CNCP(=O)(O)O [Glyphosate]		4	0	0	0	3	1	3	1	2	0	1	2	growth results of Unknown 4 and glyphosate compared (Magnaporthe grisea): nearly identical; Growth inhibition of M. grisea on inclusion of aromatic amino acids to the media (Magnaporthe grisea; 1.0 mg/ml): remediated; Growth of M. grisea with ammonium or glutamine as nitrogen source (Magnaporthe grisea; Tier 4): Little growth defect; tyrosine (metabolite downstream from the SOA) relative to the control (Arabidopsis thaliana [4]; in vivo): decreased
CS(=O)(=O)c1cc(C(F)(F)F)ccc1C(=O)c1cnoc1C1CC1 [Isoxaflutole]	15													M. grisea growth in minimal media (Magnaporthe grisea; [5]): unaffected; M. grisea growth in minimal plus tyrosine media (Magnaporthe grisea; [5]): inhibited; tyrosine and phenylalanine relative to the control (Arabidopsis thaliana [4]; Arabidopsis, after one hour): up-regulated; also recorded: began to accumulate; Alpha-tocopherol levels relative to the control (Arabidopsis thaliana [4]; Arabidopsis, early time points): not significantly changed

Source: patent publication US20040024293A1, “Methods and systems for analyzing complex biological systems” (priority 2001, published 2004)
